Data from article PMC3231940, “Disposition, metabolism and mass balance of [^14C]apremilast following oral administration” (Xenobiotica; the Fate of Foreign Compounds in Biological …, 2011).

Columns and labels:
[1] = Metabolite profiling by HPLC radiochromatography in plasma, urine and faeces; format: in vivo, human; parameters: key to Plasma (% AUC relative to TRA); share of circulating radioactivity / % of dose excreted, urine: ND: not detected; D: detected by MS, but at concentrations too low to accurately quantify by radiochromatography
Description: Individual plasma samples collected from all subjects at 0.5, 1, 2.5, 8, 24, 36 and 48 h post-dose were analysed for metabolite profiling. A pooled sample (equal volume from 0.5,1,2.5,8 and 24 h) from subject 1 was also used for metabolite profiling. Three volumes of acetonitrile were added to each sample, followed by mixing and centrifu-gation. The supernatant was removed and the pellet was washed twice with acetonitrile. The combined superna-tants were evaporated to dryness under a stream of nitrogen. The residues were re-suspended in acetonitrile: 1% formic acid in water (1:1), assayed for extraction recovery and analysed for metabolite profiling.
For each subject, urine samples were pooled using an equal percentage by volume of the 0-4, 4-8, 8-12 and 12-24-h samples. The 24-48-h urine sample from each subject and a pool of the 0-168-h urine samples from subject 1 were also analysed for metabolite profiling. Samples were mixed and centrifuged prior to the supernatants being transferred to fresh tubes for metabolite profiling analysis.
Faecal homogenates for metabolite profiling were pooled using an equal percentage by weight to generate two pools (0-48 h and 48-96 h) for each subject. An additional pool (0-168 h) was prepared using the samples collected from subject 1. An aliquot (approximately 6 g) of each pool was extracted with three volumes of acetonitrile; samples were mixed and centrifuged. The supernatant was removed and the pellets were extracted twice with an additional 12 mL of acetonitrile each time. The combined supernatants were evaporated to dryness under a stream of nitrogen and the residue was re-suspended in a small volume (approximately 400 μL) of acetonitrile: 1% formic acid in water (1:1). Samples were assayed for extraction recovery prior to metabolite profiling.
HPLC analysis for metabolite profiling was performed using a Shimadzu LC-10ADVP (Shimadzu Corp., Columbia, MD) or a Waters 2695 Alliance Separation Module (Waters Corp., Milford, MA) with the autosampler set to an ambient temperature of approximately 22°C. ASPD-10A VPUV-Vis Detector or a Waters 996 Photodiode array detector set to 254 nm was used to detect UV absorbance. [^14C]Apremilast and metabolites were separated using a Phenomenex Luna C 18(2) column (150 × 4.6 mm, 3 μm; Phenomenex, Torrance, CA) equipped with a RP-18 guard column (15×3.2 mm, 7 μm) or using an ACE 3 C18 column (150 × 4.6 mm, 3 μm; Advanced Chromatography Technologies, Aberdeen, Scotland) equipped with an ACE 3 guard column (10×3mm, 3 μm). The mobile phases used were 0.4% formic acid in water; pH 3.2 with ammonium hydroxide (mobile phase A) and acetonitrile (mobile phase B). The column temperature was 30°C and the flow rate was 0.7mL/min. The linear gradient was delivered as follows: 0-5 min to 100% A; 5-20 min to 85% A; 20-30 min hold at 85% A; 30-50 min to 65% A; 50-60 min to 60% A; 60-70 min to 50% A; 70-75 min to 0% A; hold at 0% A until 80 min; return to initial conditions over 2 min.
Radioactivity profiles for excreta were determined by radiochromatography using liquid chromatography-accurate radioisotope counting stop-flow system (LC-ARC; AIM Research Company, Wilmington, DE). Radioactivity was detected using a β-Ram Radioflow detector (IN/US Systems, Brandon, FL) equipped with a 1300-μL liquid cell. Liquid scintillation cocktail and column eluate were mixed at a ratio of 2.5:1. Radioactive peaks were quantified using LC-ARC data handling software. Plasma radioactivity profiles were determined by collecting the column eluate into 96-well Deepwell LumaPlates at a rate of 0.25 min/fraction. The plates were dried and the radioactivity in each well determined using a PerkinElmer TopCount NXT Microplate Scintillation Counter. HPLC radiochromatograms were reconstructed using LC-ARC data handling software.
Pharmacokinetic data were generated by non-compartmental analysis of plasma or whole blood versus time profiles using WinNonlin (version 4.1, Enterprise Edition). […]

[2] = tested on: PDE4 enzyme isolated from U937 human monocytic cells; assay: PDE4 inhibition, cAMP hydrolysis assay; format: biochemical
Description: (§1) PDE4 enzyme was isolated from U937 human monocytic cells and used for testing inhibition in a cAMP hydrolysis assay as previously described ([Schafer et al. 2010]). For the TNF-α production assay, human peripheral blood mono-nuclear cells (PBMC) were isolated from buffy coat of normal donor blood units (Blood Center of New Jersey, East Orange, NJ) by density centrifugation over Ficoll Hypaque (Pharmacia, Piscataway, NJ). Cells were cultured in RPMI 1640 (Life Technologies, Grand Island, NY) supplemented with 5% AB^+ human serum (Gemini Bio-products, Woodland, CA), 2-mM L-glutamine, 100-U/mL penicillin and 100-μg/mL streptomycin (Life Technologies). PBMC (2×10^5 cells) were plated in 96-well flat-bottom Costar tissue culture plates (Corning, NY) in duplicate. Cells were stimulated with lipopolysaccharides (LPS) (from Salmonella abortus equi; Sigma cat.no. L-1887, St.Louis, MO) at a final concentration of 1 ng/mL in the absence or presence of compounds. The compounds were dissolved in DMSO (Sigma) and subsequent dilutions were done in culture medium immediately before use. The compounds were added to cells 1 h before LPS stimulation. The cells were incubated for 16-18 h at 37°C in 5% CO2, and super-natants were then collected, diluted with culture medium and assayed for TNF-α levels by enzyme-linked immunosorbent assay (ThermoFisher, Rockford, IL). Fifty percent inhibitory concentrations (IC50) for the PDE4 enzymatic and TNF-α assay were calculated by non-linear regression analysis using Prism 5.1 (GraphPad Software). Regression curves were sigmoidal dose response curves with maximum and minimum constrained to 100% and 0%, respectively.

[3] = tested on: TNF-α production by human peripheral blood mononuclear cells; assay: TNF-α production assay in LPS-stimulated PBMC; format: cell-based; details: LPS 1 ng/mL, 16-18 h, ELISA
Description: as §1

Plasma (% AUC relative to TRA); share of circulating radioactivity ([1]; AUC0-t (unchanged drug or metabolite)/AUC0-48 (TRA) * 100%): D
% of dose excreted, faeces ([1]; faeces collected up to 96-h post-dose): 0.9 % of dose
Concentration in circulation relative to apremilast ([1]; plasma): < 2%
% of dose excreted, urine ([1]; urine collected up to 48-h post-dose): 1.2 % of dose
IC50 ([2]; PDE4 from U937 cells, cAMP hydrolysis): 94 nM
IC50 [3]: 21 nM
Compound: CCOc1cc([C@@H](CS(C)(=O)=O)N2C(=O)c3cccc(NC(=O)CO)c3C2=O)ccc1OC [Metabolite M17]
PDE4 and TNF-α inhibition activity compared with apremilast ([2]; both assays, in words): IC50 values similar to those of apremilast
